Measured values: patent US10179797B2, “Phosphinic peptide derivatives for use as MMP-12 inhibitors” (DSM IP ASSETS B.V., priority 2015, dated 2019)

Legend:
Human skin = assay: Total dermal elastin after UV-irradiation of cultured human skin samples; conditions: concentration 100 [μm]; for Increase vs. untreated-UV: day 6, (Dermal elastin sample − Dermal Elastin UV)/Dermal Elastin UV * 100%; for Dermal elastin: topical twice a day, daily 45 J/cm^2 UVA, day 6, papillary dermis, non-UV treated sample = 100%
Experimental: Human skin from abdominal plastic surgery classified as “Intermediate” (ITA° angle=53°) has been used. The skin samples were cut in pieces of approx. 8×3 mm (ø×thickness) and cultured up to day 6 in an air-liquid interface in a perforated ring of stainless steel in contact with a culture medium (modified Williams'E medium), the culture medium was renewed every three days. Eight skin specimens were used for each treatment. Each test sample (4 μl) was topically applied twice a day, immediately after UV irradiation and renewed 4 hours later top of each piece after gentle cleaning of the surface with a cotton pad followed by covering with a 6 ømm delivery membrane, which procedure was repeated daily. The samples were irradiated daily with 800% of the Biological Effective Dose of daylight (BED; Del Bino et al, Pigment Cell research, 19, 2006) equal to a dose of 45 J/cm^2 UVA using an adopted BIO-SUN system (Vilber Lourmat). At day 6 twelve skin sections were immunostained with mouse monoclonal anti-Elastin antibody (Sigma cat#E4013). The papillary dermis is selected for the analysis. The evaluation has been performed by estimating both color intensity and distribution with IMAGE J (NIH) analysis software Two slides of each skin sample have been processed by image acquisition and related analysis (i.e. 12 images for each treatment). The score of the dermal Elastin of the non-UV treated sample was set to 100%.

MMP-12 [1] = molecular target: T1, MMP-12 (Homo sapiens, UniProt P39900); assay: MMP-12 Fluorometric Drug Discovery Kit inhibition assay; type: biochemical; parameters: purchased Enzo Life Sciences Inc., Farmingdale, N.Y., USA; conditions: read-out: % Inhibition after 20 min
From the text: The MMP-12 inhibitor activity was quantified by fluorometric analysis using the MMP-12 Fluorometric Drug Discovery Kit (Enzo Life Sciences Inc., Farmingdale, N.Y., USA) according to the manufacturers' instructions.
Target sequence in this assay (P39900 106-263 limits assumed): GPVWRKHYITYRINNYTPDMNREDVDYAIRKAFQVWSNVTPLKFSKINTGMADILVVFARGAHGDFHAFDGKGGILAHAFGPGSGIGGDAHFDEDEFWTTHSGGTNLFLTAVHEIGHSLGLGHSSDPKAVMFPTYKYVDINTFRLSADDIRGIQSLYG

MMP-12 [2] = molecular target: T1, MMP-12; assay: Inhibition of MMP-12 degradation of elastin fibers produced by human dermal fibroblasts; type: cell-based; conditions: MMP-12 200 U/ml, 2 hrs at 37° C.
Experimental: Human dermal fibroblasts were pre-cultured in DMEM, 10% FCS, 1% P/S for 48 hrs before starving them in DMEM, 0.2% FCS, 1% P/S for 24 hrs. To induce elastin fiber production TGFb1 (10 ng/ml) was added and incubated for 5 days. After incubation with TGFb1, medium was carefully discarded and cells were washed with assay buffer (HBSS, […] HEPES). In the meantime MMP-12 (200 U/ml) and compounds were mixed in assay buffer and allowed to interact for 30 min. This mixture was then added to the cells and incubated for 2 hrs at 37° C.
Cells were then fixed with ice-cold methanol for 5 min and rehydrated by PBS. Unspecific sites were blocked with 1% BSA in PBS for 1 h at room temperature. Elastin fibers were detected using a primary antibody against elastin and the first antibody was detected with AlexaFluor 488 conjugated secondary antibody. Finally, nuclei were counterstained with DAPI. Stained cells were analyzed with the Thermo Scientific ArrayScan XTI Live High Content Platform. 49 pictures per well were acquired with a 20× objective and as readout we used the area covered by the elastin fibers. % of inhibition of elastin fiber degradation was calculated the following way: % protection of elastin fiber network degradation=100−[(max area−min area)/(max area inhibitor area)*100] in which max area=area covered by elastin fibers of untreated control cells min area=area covered by elastin fibers of MMP12 treated cells inhibitor area=area covered by elastin fibers of MMP12 and inhibitor treated cells.
Target sequence in this assay (P39900 106-470, species assumed): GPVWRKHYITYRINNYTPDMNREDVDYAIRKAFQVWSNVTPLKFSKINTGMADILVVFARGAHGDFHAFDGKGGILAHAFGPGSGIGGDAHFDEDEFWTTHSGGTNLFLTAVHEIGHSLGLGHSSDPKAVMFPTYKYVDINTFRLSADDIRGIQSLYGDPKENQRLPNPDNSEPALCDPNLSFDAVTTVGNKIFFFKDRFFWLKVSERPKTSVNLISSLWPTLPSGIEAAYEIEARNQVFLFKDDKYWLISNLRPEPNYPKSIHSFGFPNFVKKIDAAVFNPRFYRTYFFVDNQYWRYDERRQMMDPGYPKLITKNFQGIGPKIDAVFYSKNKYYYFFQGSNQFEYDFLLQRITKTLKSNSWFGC

SMILES | inhibition at 0.5 µM (MMP-12 [1]) [%] | inhibition at 1 µM (MMP-12 [1]) [%] | inhibition at 10 µM (MMP-12 [1]) [%] | further results
O=C(NC(Cc1c[nH]c2ccccc12)C(=O)O)C(Cc1ccc(-c2ccccc2)cc1)CP(=O)(O)CCc1ccccc1.O=C(O)C(F)(F)F (stereo not drawn) [(I)-c, (3-([1,1′-biphenyl]-4-yl)-2-((hydroxy(phenethyl)phosphoryl)methyl)propanoyl)tryptophan compound with 2,2,2-trifluoroacetic acid (1:1)] | – | – | – | Increase vs. untreated-UV (Human skin): +52%; Dermal elastin (Human skin): 123%
CC[C@@H](C)[C@H](NC(=O)[C@H](Cc1ccc(-c2ccccc2)cc1)CP(=O)(O)CCc1ccccc1)C(=O)OC(C)(C)C [(I)-U, ((S)-2-([1,1′-biphenyl]-4-ylmethyl)-3-(((2S,3R)-1-(tert-butoxy)-3-methyl-1-oxopentan-2-yl)amino)-3-oxopropyl)(phenethyl)phosphinic acid] | – | – | 72 | –
CC[C@@H](C)[C@H](NC(=O)[C@@H](Cc1ccc(-c2ccccc2)cc1)CP(=O)(O)CCc1ccccc1)C(=O)OC(C)(C)C [(I)-T, ((R)-2-([1,1′-biphenyl]-4-ylmethyl)-3-(((2S,3R)-1-(tert-butoxy)-3-methyl-1-oxopentan-2-yl)amino)-3-oxopropyl)(phenethyl)phosphinic acid] | – | – | 75 | –
CCC(C)[C@H](NC(=O)[C@H](Cc1ccc(-c2ccccc2)cc1)CP(=O)(O)CCc1ccccc1)C(=O)O (stereo partly drawn) [(I)-B] | 94 | 94 | 92 | –
CC(NC(=O)C(Cc1ccc(-c2ccccc2)cc1)CP(=O)(O)CCc1ccccc1)C(=O)O (stereo not drawn) [(I)-m, (3-([1,1′-biphenyl]-4-yl)-2-((hydroxy(phenethyl)phosphoryl)methyl)propanoyl)alanine] | – | – | – | Increase vs. untreated-UV (Human skin): +30%; Dermal elastin (Human skin): 106%
O=C(O)CCCNC(=O)C(Cc1ccc(-c2ccccc2)cc1)CP(=O)(O)CCc1ccccc1 (stereo not drawn) [(I)-L] | 75 | 82 | 90 | –
C[C@H](NC(=O)[C@H](Cc1ccc(-c2ccccc2)cc1)CP(=O)(O)CCc1ccccc1)C(=O)O [(I)-J] | 93 | 94 | 90 | –
CCCC[C@H](NC(=O)[C@@H](Cc1ccc(-c2ccccc2)cc1)CP(=O)(O)CCc1ccccc1)C(=O)O [(I)-N] | – | – | 89 | –
O=C(N[C@@H](Cc1c[nH]c2ccccc12)C(=O)O)[C@H](Cc1ccc(-c2ccccc2)cc1)CP(=O)(O)CCc1ccccc1 [(I)-C] | 93 | 94 | 92 | –
CC[C@H](NC(=O)[C@H](Cc1ccc(-c2ccccc2)cc1)CP(=O)(O)CCc1ccccc1)C(=O)OC(C)(C)C [(I)-P] | – | – | 88 | –
CCC(C)C(NC(=O)C(Cc1ccc(-c2ccccc2)cc1)CP(=O)(O)CCc1ccccc1)C(=O)O (stereo not drawn) [(I)-e, 2-(3-([1,1′-biphenyl]-4-yl)-2-((hydroxy(phenethyl)phosphoryl)methyl)propanamido)-3-methylpentanoic acid] | – | – | – | % protection of elastin fiber network degradation (MMP-12 [2]; 0.05 μM): 12.44%; % protection of elastin fiber network degradation (MMP-12 [2]; 1 μM): 68.17%; % protection of elastin fiber network degradation (MMP-12 [2]; 20 μM): 83.73%
COC(=O)C(C)(C)NC(=O)C(Cc1ccc(-c2ccccc2)cc1)CP(=O)(O)CCc1ccccc1 (stereo not drawn) [(I)-V, (2-([1,1′-biphenyl]-4-ylmethyl)-3-((1-methoxy-2-methyl-1-oxopropan-2-yl)amino)-3-oxopropyl)(phenethyl)phosphinic acid] | – | – | 61 | –
COC(=O)[C@H](CCNC(=O)OC(C)(C)C)NC(=O)[C@@H](Cc1ccc(-c2ccccc2)cc1)CP(=O)(O)CCc1ccccc1 [(I)-D] | 85 | 90 | 91 | –
CCCCC(NC(=O)C(Cc1ccc(-c2ccccc2)cc1)CP(=O)(O)CCc1ccccc1)C(=O)O (stereo not drawn) [(I)-k, 2-(3-([1,1′-biphenyl]-4-yl)-2-((hydroxy(phenethyl)phosphoryl)methyl)propanamido)hexanoic acid] | – | – | – | Increase vs. untreated-UV (Human skin): +54%; Dermal elastin (Human skin): 125%
CCCC[C@H](NC(=O)[C@H](Cc1ccc(-c2ccccc2)cc1)CP(=O)(O)CCc1ccccc1)C(=O)OC [(I)-H] | 83 | 89 | 91 | –

More lines, main results first:

inhibition at 0.5 µM (MMP-12 [1]) [%] | inhibition at 1 µM (MMP-12 [1]) [%] | inhibition at 10 µM (MMP-12 [1]) [%] | SMILES | further results
73 | 82 | 91 | CC(C)C[C@H](NC(=O)[C@H](Cc1ccc(-c2ccccc2)cc1)CP(=O)(O)CCc1ccccc1)C(=O)OC(C)(C)C [(I)-F] | –
– | – | 82 | COC(=O)[C@@H](NC(=O)[C@H](Cc1ccc(-c2ccccc2)cc1)CP(=O)(O)CCc1ccccc1)C1CCCCC1 [(I)-S, ((S)-2-([1,1′-biphenyl]-4-ylmethyl)-3-(((S)-1-cyclohexyl-2-methoxy-2-oxoethyl)amino)-3-oxopropyl)(phenethyl)phosphinic acid] | –
78 | 85 | 91 | O=C(N[C@@H](Cc1ccc2ccccc2c1)C(=O)O)[C@@H](Cc1ccc(-c2ccccc2)cc1)CP(=O)(O)CCc1ccccc1 [(I)-G] | –
– | – | 82 | CC(C)(C)OC(=O)[C@H](Cc1cn(C(=O)OC(C)(C)C)c2ccccc12)NC(=O)C(Cc1ccc(-c2ccccc2)cc1)CP(=O)(O)CCc1ccccc1 (stereo partly drawn) [(I)-R] | –
75 | 82 | 92 | COC(=O)[C@H](Cc1csc2ccccc12)NC(=O)[C@H](Cc1ccc(-c2ccccc2)cc1)CP(=O)(O)CCc1ccccc1 [(I)-A] | –
69 | 79 | 90 | O=C(N[C@@H](Cc1c[nH]c2ccccc12)C(=O)O)[C@@H](Cc1ccc(-c2ccccc2)cc1)CP(=O)(O)CCc1ccccc1 [(I)-K] | –
– | – | 83 | O=C(N[C@@H](Cc1ccc2ccccc2c1)C(=O)OCc1ccccc1)[C@H](Cc1ccc(-c2ccccc2)cc1)CP(=O)(O)CCc1ccccc1 [(I)-Q] | –
52 | 64 | 89 | O=C(N[C@@H](Cc1csc2ccccc12)C(=O)O)[C@@H](Cc1ccc(-c2ccccc2)cc1)CP(=O)(O)CCc1ccccc1 [(I)-M] | –
84 | 89 | 90 | NC(=O)C[C@H](NC(=O)[C@@H](Cc1ccc(-c2ccccc2)cc1)CP(=O)(O)CCc1ccccc1)C(=O)O [(I)-I] | –
– | – | 88 | NC(=O)C[C@H](NC(=O)[C@H](Cc1ccc(-c2ccccc2)cc1)CP(=O)(O)CCc1ccccc1)C(=O)O [(I)-O] | –
